Legend:
[1] = test system: PC12; experiment: in vitro killing activity; assay type: cell-based, Rat; conditions: 120 time of incubation
Description: (§1) Different concentrations of compounds CPT-1, CPT-2, CPT-3, CPT-4, Dxd (MedChem Express, Cat #: HY-13631D) and SN38 (MedChem Express, Cat #: HY-13704) were used to treat different human tumor cell lines, mice tumor cell lines, rat tumor cell lines or dog tumor cell lines cultured in a cell culture plate, respectively. And the killing activity was detected after 72 h-120 h incubation by IncuCyte (Sartorius AG, IncuCyte® S3) or MicroplateReader.

[2] = test system: L6; experiment: in vitro killing activity; assay type: cell-based, Rat; conditions: 120 h incubation
Description: as §1

[3] = test system: Pgp; conditions: cited from earlier work
[4] = test system: B16F10; experiment: in vitro killing activity; assay type: cell-based, Mice; conditions: 75 time of incubation
Description: as §1

[5] = test system: CT26; experiment: in vitro killing activity; assay type: cell-based, Mice; conditions: 96 time of incubation
Description: as §1

[6] = test system: MC38; experiment: in vitro killing activity; assay type: cell-based, Mice; conditions: 120 time of incubation
Description: as §1

[7] = test system: U-2-OS; experiment: in vitro killing activity; assay type: cell-based, Human; conditions: 120 time of incubation
Description: as §1

[8] = test system: Panc 02.03; experiment: in vitro killing activity; assay type: cell-based, Human; conditions: 120 time of incubation
Description: as §1

[9] = test system: SW156; experiment: in vitro killing activity; assay type: cell-based, Human; conditions: 120 time of incubation
Description: as §1

[10] = test system: HS-746T; experiment: in vitro killing activity; assay type: cell-based, Human; conditions: 120 time of incubation
Description: as §1

[11] = test system: NCI-H226; experiment: in vitro killing activity; assay type: cell-based, Human; conditions: 120 h incubation
Description: as §1

[12] = test system: NCI-H69; experiment: in vitro killing activity; assay type: cell-based, Human; conditions: 120 time of incubation
Description: as §1

[13] = test system: BT474; experiment: in vitro killing activity; assay type: cell-based, Human; conditions: 120 time of incubation
Description: as §1

[14] = test system: HuH-7; experiment: in vitro killing activity; assay type: cell-based, Human; conditions: 120 h incubation
Description: as §1

[15] = test system: BxPC-3; experiment: in vitro killing activity; assay type: cell-based, Human; conditions: 120 time of incubation
Description: as §1

[16] = test system: OVKATE; experiment: in vitro killing activity; assay type: cell-based, Human; conditions: 120 time of incubation
Description: as §1

[17] = test system: PC-3; experiment: in vitro killing activity; assay type: cell-based, Human; conditions: 120 time of incubation
Description: as §1

[18] = test system: SW620; experiment: in vitro killing activity; assay type: cell-based, Human; conditions: 120 h incubation
Description: as §1

[19] = test system: NCI-N87; experiment: in vitro killing activity; assay type: cell-based, Human; conditions: 120 time of incubation
Description: as §1

[20] = test system: NCI-H1781; experiment: in vitro killing activity; assay type: cell-based, Human; conditions: 120 time of incubation
Description: as §1

[21] = test system: SKOV-3; experiment: in vitro killing activity; assay type: cell-based, Human; conditions: 120 time of incubation
Description: as §1

[22] = test system: HCC1954; experiment: in vitro killing activity; assay type: cell-based, Human; conditions: 120 time of incubation
Description: as §1

[23] = test system: A-431; experiment: in vitro killing activity; assay type: cell-based, Human; conditions: 120 time of incubation
Description: as §1

[24] = test system: NCI-H2030; experiment: in vitro killing activity; assay type: cell-based, Human; conditions: 120 time of incubation
Description: as §1

[25] = test system: Hela; experiment: in vitro killing activity; assay type: cell-based, Human; conditions: 120 h incubation
Description: as §1

[26] = test system: LOVO; experiment: in vitro killing activity; assay type: cell-based, Human; conditions: 120 h incubation
Description: as §1

[27] = test system: NCI-H1975; experiment: in vitro killing activity; assay type: cell-based, Human; conditions: 120 time of incubation
Description: as §1

[28] = test system: D17; experiment: in vitro killing activity; assay type: cell-based, Dog; conditions: 120 time of incubation
Description: as §1

[29] = test system: DCOL1 (S+L−); experiment: in vitro killing activity; assay type: cell-based, Dog; conditions: 120 time of incubation
Description: as §1

[30] = test system: MP-0094-3; experiment: in vitro killing activity; assay type: cell-based, Dog; conditions: 120 time of incubation
Description: as §1

[31] = test system: CMT-U27; experiment: in vitro killing activity; assay type: cell-based, Dog; conditions: 120 time of incubation
Description: as §1

[32] = test system: MP-1044-1; experiment: in vitro killing activity; assay type: cell-based, Dog; conditions: 72 time of incubation
Description: as §1

[33] = test system: MP-0094-2; experiment: in vitro killing activity; assay type: cell-based, Dog; conditions: 120 time of incubation
Description: as §1

[34] = test system: MP-1092-1; experiment: in vitro killing activity; assay type: cell-based, Dog; conditions: 120 time of incubation
Description: as §1

[35] = test system: A431 cells; experiment: anti-tumor activity in A431 xenograft model; assay type: in vivo, A431 xenograft in B-NDG mice; conditions: 10 mg/kg i.v. BIW x4
Description: (§2) The lengths of the long axis and the short axis of the tumor were measured and the volume of the tumor was calculated as 0.5×(long axis)×(short axis)2. […] Ti is the average tumor volume in the treatment group on day i. T0 is the average tumor volume in the treatment group on day zero. Vi is the average tumor volume in the control group on day i. V0 is the average tumor volume in the control group on day zero. T-test was performed for statistical analysis. […] P<0.05 is a threshold to indicate significant difference. The body weights of the mice were also measured throughout the entire administration period.
The ADCs were tested for their effects on tumor growth in vivo in a xenograft model of epidermoid carcinoma. Specifically, about 1×10^6 A431 cells were injected subcutaneously in B-NDG mice. When the tumors in the mice reached a volume of about 200 mm^3, the mice were randomly placed into different groups based on tumor volume. The mice were then injected with PBS, antibody, or ADCs by intravenous (i.v.) administration.

[36] = test system: NCI-H292 cells; experiment: anti-tumor activity in NCI-H292 xenograft model; assay type: in vivo, NCI-H292 xenograft in B-NDG mice; conditions: 10 mg/kg i.v. BIW x2
Description: as §2
The antibody or ADCs were tested for their effects on tumor growth in vivo in a xenograft model of lung cancer. Specifically, about 5×10^6 NCI-H292 cells were injected subcutaneously in B-NDG mice. When the tumors in the mice reached a volume of about 300 mm^3, the mice were randomly placed into different groups based on tumor volume. The mice were then injected with PBS, antibody, or ADCs by intravenous (i.v.) administration.

CC[C@@]1(O)C(=O)OCc2c1cc1n(c2=O)Cc2c-1nc1cc(F)c(C)c3c1c2[C@@H](NC(=O)CO)CC3 [Dxd, reference compound]
IC50 [1]: 9.19 nM | IC50 [2]: 13.8 nM | Pgp substrate [3]: Pgp substrates | IC50 [4]: 26.2 nM | IC50 [5]: 94.2 nM | IC50 [6]: 38.5 nM | IC50 [7]: 41.9 nM | IC50 [8]: 3.18 nM | IC50 [9]: 1.84 nM | IC50 [10]: 1.05 nM | IC50 [11]: 22.9 nM | IC50 [12]: 0.299 nM | IC50 [13]: 10.9 nM | IC50 [14]: 1.39 nM | IC50 [15]: 1.87 nM | IC50 [16]: 12.3 nM | IC50 [17]: 6.4 nM | IC50 [18]: 3.89 nM | IC50 [19]: 7.03 nM | IC50 [20]: 0.724 nM | IC50 [21]: 16.5 nM | IC50 [22]: 3.31 nM | IC50 [23]: 28.1 nM | IC50 [24]: 6.43 nM | IC50 [25]: 6.69 nM | IC50 [26]: 8.65 nM | IC50 [27]: 9.91 nM | IC50 [28]: 6.08 nM | IC50 [29]: 9.05 nM | IC50 [30]: 22 nM | IC50 [31]: 3.37 nM | IC50 [32]: 41.7 nM | IC50 [33]: 9.67 nM | IC50 [34]: 7.13 nM

CCc1c2c(nc3ccc(O)cc13)-c1cc3c(c(=O)n1C2)COC(=O)[C@]3(O)CC [SN38, reference compound]
IC50 [1]: 5.66 nM | IC50 [2]: 20.8 nM | Pgp substrate [3]: Pgp substrates | IC50 [11]: 20.4 nM | IC50 [14]: 2.41 nM | IC50 [18]: 4.6 nM | IC50 [19]: 7.39 nM | IC50 [25]: 6.61 nM | IC50 [26]: 10.2 nM | IC50 [27]: 13.2 nM

Sacituzumab govitecan: humanized anti-TROP2 monoclonal antibody-drug conjugate from Immunomedics, Inc
Tumor volume Day 17 [35]: 682 ± 71 mm^3 | Tumor volume Day 31 [35]: 1554 ± 144 mm^3 | Tumor volume Day 0 ([35]; day of grouping (baseline)): 197 ± 6 mm^3 | Tumor volume Day 21 [36]: 428 ± 51 mm^3 | Tumor volume Day 39 [36]: 893 ± 62 mm^3 | Tumor volume Day 0 ([36]; day of grouping (baseline)): 297 ± 11 mm^3

Source: patent US20260315611A1, “LINKER COMPOUNDS AND LIGAND-DRUG CONJUGATES, PREPARATION METHODS AND USES THEREOF” (Biocytogen Pharmaceuticals (Beijing) Co., Ltd., priority 2023, published 2026)
